Where two headings read alike, the source gives them in different places. Numbered stars: 1 amine (or outer) side, 2 acyl side, 3 side chain; on linkers, the order of the positions; unused ones are H or OH. Square brackets hold non-standard residues; d marks the D form. Side chains are listed from the residue outwards. Peptide text beside a SMILES is read from it. * marks the point of attachment. γGlu = O=C(O)[C@H](CCC(=O)[*:2])N[*:1]; αMeF = C[C@](N)(Cc1ccccc1)C(=O)O; αMeK = C[C@](N)(CCCCN)C(=O)O; Lauroyl = CCCCCCCCCCCC(=O)*; αMeS = C[C@](N)(CO)C(=O)O; AEEA = NCCOCCOCC(=O)O; Aib = CC(C)(N)C(=O)O
Assays:
Format in all cases: cell-based
[1] = target: T1, human GLP-1 receptor (GLP-1R) (Homo sapiens, UniProt P43220); assay: cAMP assay, human GLP-1R cells
T1 construct: expressed in transfected cells
T1 sequence (P43220 24-463): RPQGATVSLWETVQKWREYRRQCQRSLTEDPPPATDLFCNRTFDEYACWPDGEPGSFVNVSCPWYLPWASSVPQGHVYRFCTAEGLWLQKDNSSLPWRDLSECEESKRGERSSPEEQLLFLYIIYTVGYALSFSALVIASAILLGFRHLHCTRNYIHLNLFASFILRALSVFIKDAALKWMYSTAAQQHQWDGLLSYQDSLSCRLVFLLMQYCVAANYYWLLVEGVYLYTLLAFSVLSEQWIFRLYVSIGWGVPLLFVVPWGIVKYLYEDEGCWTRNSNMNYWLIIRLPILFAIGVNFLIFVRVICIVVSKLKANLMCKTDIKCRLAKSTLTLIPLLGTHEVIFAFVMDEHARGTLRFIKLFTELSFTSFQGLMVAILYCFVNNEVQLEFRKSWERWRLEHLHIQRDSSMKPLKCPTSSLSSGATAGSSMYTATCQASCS
Summary of the method: (§1)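 Peptide-stimulated cAMP measured by two-step HTRF after a 30 min room-temperature incubation with receptor-expressing cells (hGLP-1R, hGIPR at 1×10^5 cells/ml; hGCGR at 2×10^5 cells/ml). Duplicate dilutions; EC50 from 4-parameter logistic fit of % Delta F.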

[2] = target: T2, human glucose-dependent insulinotropic peptide receptor (GIPR) (Homo sapiens, UniProt P48546); assay: cAMP assay, human GIPR cells
T2 construct: expressed in transfected cells
T2 sequence (P48546 22-466): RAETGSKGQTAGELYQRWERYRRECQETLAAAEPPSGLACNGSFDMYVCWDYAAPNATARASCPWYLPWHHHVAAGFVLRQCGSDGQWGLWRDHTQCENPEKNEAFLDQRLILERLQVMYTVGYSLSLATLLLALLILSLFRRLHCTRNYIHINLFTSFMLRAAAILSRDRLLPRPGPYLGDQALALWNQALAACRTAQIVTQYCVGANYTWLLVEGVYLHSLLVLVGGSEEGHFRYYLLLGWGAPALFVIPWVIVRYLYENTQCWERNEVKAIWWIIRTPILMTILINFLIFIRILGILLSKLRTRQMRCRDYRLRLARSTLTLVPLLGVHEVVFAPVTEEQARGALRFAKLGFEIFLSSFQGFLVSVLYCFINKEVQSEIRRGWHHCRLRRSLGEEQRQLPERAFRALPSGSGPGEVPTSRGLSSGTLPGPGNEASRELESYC
Summary of the method: as §1

[3] = target: T3, human glucagon receptor (GCGR) (Homo sapiens, UniProt P47871); assay: cAMP assay, human GCGR cells
T3 construct: expressed in transfected cells
T3 sequence (P47871 26-477): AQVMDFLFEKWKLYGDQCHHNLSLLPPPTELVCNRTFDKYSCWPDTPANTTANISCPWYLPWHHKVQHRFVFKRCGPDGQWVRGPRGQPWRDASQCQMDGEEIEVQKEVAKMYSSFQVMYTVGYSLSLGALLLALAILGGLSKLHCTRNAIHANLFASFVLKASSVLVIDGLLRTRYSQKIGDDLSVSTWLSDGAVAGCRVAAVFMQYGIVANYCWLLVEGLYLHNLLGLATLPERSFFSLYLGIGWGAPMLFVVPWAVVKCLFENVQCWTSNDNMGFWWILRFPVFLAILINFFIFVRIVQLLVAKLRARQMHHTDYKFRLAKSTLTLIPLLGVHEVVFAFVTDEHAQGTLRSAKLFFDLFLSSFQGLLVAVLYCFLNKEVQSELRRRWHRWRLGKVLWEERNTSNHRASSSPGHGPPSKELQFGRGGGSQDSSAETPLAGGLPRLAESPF
Summary of the method: as §1

[4] = cAMP assay, first determination (n1), read-out: Primary assay EC50 GLP-1R n1
[5] = cAMP assay, second determination (n2), read-out: Primary assay EC50 GLP-1R n2
[6] = mean of n1 and n2, read-out: Mean pM GLP-1R
[7] = cAMP assay, first determination (n1), read-out: Primary assay EC50 GIP-R (n1)
[8] = cAMP assay, second determination (n2), read-out: Primary assay EC50 GIP-R (n2)
[9] = cAMP assay, first determination (n1), read-out: Primary assay EC50 Gluc-R (n1)
[10] = cAMP assay, second determination (n2), read-out: Primary assay EC50 Gluc-R (n2)

EC50 [1, 4] [pM] | EC50 [1, 5] [pM] | EC50 [1, 6] [pM] | EC50 [2, 7] [nM] | EC50 [2, 8] [nM] | EC50 [3, 9] [nM] | EC50 [3, 10] [nM] | EC50 ([1]; tris-lipidated peptides, mean of n1 and n2, read-out: Primary assay EC50 Mean pM GLP-1R) [pM] | EC50 ([1]; tris-lipidated peptides, replicate n1, read-out: Primary assay EC50 GLP-1R n1) [pM] | EC50 ([1]; tris-lipidated peptides, replicate n2, read-out: Primary assay EC50 GLP-1R n2) [pM] | EC50 ([2]; tris-lipidated peptides, first replicate, read-out: Primary assay EC50 GIP-R (n1)) [nM] | EC50 ([3]; tris-lipidated peptides, second replicate, read-out: Primary assay EC50 Gluc-R (n2)) [nM] | Structure (SMILES)
16 | 8.7 | 12.1 | ≥ 26 | ≥ 26 | ≥ 26 | ≥ 26 | – | – | – | – | – | CCCCCCCCCCCCCCCCCC(=O)N[C@@H](CCC(=O)N[C@@H](CCC(=O)N[C@@H](CCC(=O)NCCCC[C@H](NC(=O)[C@H](C)NC(=O)[C@H](C)NC(=O)[C@H](CCC(=O)O)NC(=O)CNC(=O)[C@H](CCC(=O)O)NC(=O)[C@H](CC(C)C)NC(=O)[C@](C)(Cc1ccccc1)NC(=O)[C@H](CO)NC(=O)[C@](C)(CO)NC(=O)[C@@H](NC(=O)[C@H](CC(=O)O)NC(=O)[C@H](CO)NC(=O)[C@@H](NC(=O)[C@](C)(Cc1ccccc1)NC(=O)[C@H](CO)NC(=O)CNC(=O)[C@H](CCC(=O)O)NC(=O)C(C)(C)NC(=O)[C@@H](N)Cc1c[nH]cn1)[C@@H](C)O)C(C)C)C(=O)N[C@@H](CCC(=O)O)C(=O)N[C@@](C)(Cc1ccccc1)C(=O)N[C@H](C(=O)N[C@@H](C)C(=O)N[C@@](C)(Cc1ccccc1)C(=O)N[C@H](C(=O)N[C@H](C(=O)N[C@@](C)(CCCCN)C(=O)NCC(=O)NCC(N)=O)C(C)C)C(C)C)[C@@H](C)CC)C(=O)O)C(=O)O)C(=O)O [compound 148]
290 | 190 | 238 | ≥ 28 | ≥ 28 | ≥ 28 | ≥ 28 | – | – | – | – | – | CC[C@H](C)[C@H](NC(=O)[C@](C)(Cc1ccccc1)NC(=O)[C@H](CCC(=O)O)NC(=O)[C@H](CCCCNC(=O)CC[C@H](NC(=O)CCCCCCCCCCCCCCCCC(=O)O)C(=O)O)NC(=O)[C@H](C)NC(=O)[C@H](C)NC(=O)[C@H](CCC(=O)O)NC(=O)CNC(=O)[C@H](CCC(=O)O)NC(=O)[C@H](CC(C)C)NC(=O)[C@](C)(Cc1ccccc1)NC(=O)[C@H](CO)NC(=O)[C@](C)(CO)NC(=O)[C@@H](NC(=O)[C@H](CC(=O)O)NC(=O)[C@H](CO)NC(=O)[C@@H](NC(=O)[C@](C)(Cc1ccccc1)NC(=O)[C@H](CO)NC(=O)CNC(=O)[C@H](CCC(=O)O)NC(=O)C(C)(C)NC(=O)[C@@H](N)Cc1c[nH]cn1)[C@@H](C)O)C(C)C)C(=O)N[C@@H](C)C(=O)N[C@@](C)(Cc1ccccc1)C(=O)N[C@H](C(=O)N[C@H](C(=O)N[C@@](C)(CCCCN)C(=O)NCC(=O)NCC(N)=O)C(C)C)C(C)C [compound 155]
80000 | 97000 | 88600 | ≥ 100 | ≥ 100 | ≥ 100 | ≥ 100 | – | – | – | – | – | CC[C@H](C)[C@H](NC(=O)[C@](C)(Cc1ccccc1)NC(=O)[C@H](CCC(=O)O)NC(=O)[C@](C)(CCCCN)NC(=O)[C@H](C)NC(=O)[C@H](C)NC(=O)[C@H](CCC(=O)O)NC(=O)CNC(=O)[C@H](CCC(=O)O)NC(=O)[C@H](CC(C)C)NC(=O)[C@](C)(Cc1ccccc1)NC(=O)[C@H](CO)NC(=O)[C@](C)(CO)NC(=O)[C@@H](NC(=O)[C@H](CC(=O)O)NC(=O)[C@@H](NC(=O)[C@@H](NC(=O)[C@](C)(Cc1ccccc1)NC(=O)[C@H](CO)NC(=O)CNC(=O)[C@H](CCC(=O)O)NC(=O)C(C)(C)NC(=O)[C@@H](N)Cc1c[nH]cn1)[C@@H](C)O)C(C)C)C(C)C)C(=O)N[C@@H](C)C(=O)N[C@@](C)(Cc1ccccc1)C(=O)N[C@H](C(=O)N[C@H](C(=O)N[C@@](C)(CCCCN)C(=O)NCC(=O)NCC(N)=O)C(C)C)C(C)C [compound 30] (H-H[Aib]EGS[αMeF]TVDV[αMeS]S[αMeF]LEGEAA[αMeK]E[αMeF]IA[αMeF]VV[αMeK]GG-NH2; N-terminus assumed)
– | – | – | – | – | – | – | 82 | 60.9 | 103 | 19.7 | 19.7 | CCCCCCCCCCCC(=O)N[C@@H](CCC(=O)NCCOCCOCC(=O)NCCOCCOCC(=O)NCCCC[C@H](NC(=O)[C@H](CC(=O)O)NC(=O)[C@H](CO)NC(=O)[C@@H](NC(=O)[C@](C)(Cc1ccccc1)NC(=O)[C@H](CO)NC(=O)CNC(=O)[C@H](CCC(=O)O)NC(=O)C(C)(C)NC(=O)[C@@H](N)Cc1c[nH]cn1)[C@@H](C)O)C(=O)N[C@@H](CO)C(=O)N[C@@H](CO)C(=O)N[C@@H](Cc1ccc(O)cc1)C(=O)N[C@@H](CC(C)C)C(=O)N[C@@H](CCC(=O)O)C(=O)NCC(=O)N[C@@H](CCC(=O)O)C(=O)N[C@@H](C)C(=O)N[C@@H](C)C(=O)N[C@@](C)(CCCCN)C(=O)N[C@@H](CCCCNC(=O)COCCOCCNC(=O)COCCOCCNC(=O)CC[C@H](NC(=O)CCCCCCCCCCC)C(=O)O)C(=O)N[C@@H](Cc1ccccc1)C(=O)N[C@H](C(=O)N[C@@H](CCCCNC(=O)COCCOCCNC(=O)COCCOCCNC(=O)CC[C@H](NC(=O)CCCCCCCCCCC)C(=O)O)C(=O)N[C@@H](Cc1ccccc1)C(=O)N[C@H](C(=O)N[C@H](C(=O)N[C@@H](CCC(=O)O)C(=O)NCC(=O)NCC(N)=O)C(C)C)C(C)C)[C@@H](C)CC)C(=O)O [compound 442] (H-H[Aib]EGS[αMeF]TSDK([AEEA-AEEA-γGlu-Lauroyl])SSYLEGEAA[αMeK]K([AEEA-AEEA-γGlu-Lauroyl])FIK([AEEA-AEEA-γGlu-Lauroyl])FVVEGG-NH2; N-terminus assumed)

From patent US10414811B2, “Protease-resistant lipidated GLP-1 analogs” (MEDIMMUNE LIMITED, priority 2015, dated 2019)
